Reference: patent US6458781B1, “Substituted diarylalkyl amides as calcium channel antagonists” (priority 1998, dated 2002)
Where a name gives a salt, the structure may show the parent alone. Read-outs that look alike come from different tables or passages of the source.

Assays:
[1] = target: T1, N-type calcium channels in IMR-32 cells (Homo sapiens, UniProt Q00975); assay: N-type Ca2+ channel blocking potency in IMR-32 cells using Indo-1; assay type: cell-based; conditions: for IC50: IMR-32 cells
T1 construct: host or cells: IMR-32 cells differentiated with dibutyryl cAMP and bromodeoxyuridine
T1 sequence (Q00975 whole entry): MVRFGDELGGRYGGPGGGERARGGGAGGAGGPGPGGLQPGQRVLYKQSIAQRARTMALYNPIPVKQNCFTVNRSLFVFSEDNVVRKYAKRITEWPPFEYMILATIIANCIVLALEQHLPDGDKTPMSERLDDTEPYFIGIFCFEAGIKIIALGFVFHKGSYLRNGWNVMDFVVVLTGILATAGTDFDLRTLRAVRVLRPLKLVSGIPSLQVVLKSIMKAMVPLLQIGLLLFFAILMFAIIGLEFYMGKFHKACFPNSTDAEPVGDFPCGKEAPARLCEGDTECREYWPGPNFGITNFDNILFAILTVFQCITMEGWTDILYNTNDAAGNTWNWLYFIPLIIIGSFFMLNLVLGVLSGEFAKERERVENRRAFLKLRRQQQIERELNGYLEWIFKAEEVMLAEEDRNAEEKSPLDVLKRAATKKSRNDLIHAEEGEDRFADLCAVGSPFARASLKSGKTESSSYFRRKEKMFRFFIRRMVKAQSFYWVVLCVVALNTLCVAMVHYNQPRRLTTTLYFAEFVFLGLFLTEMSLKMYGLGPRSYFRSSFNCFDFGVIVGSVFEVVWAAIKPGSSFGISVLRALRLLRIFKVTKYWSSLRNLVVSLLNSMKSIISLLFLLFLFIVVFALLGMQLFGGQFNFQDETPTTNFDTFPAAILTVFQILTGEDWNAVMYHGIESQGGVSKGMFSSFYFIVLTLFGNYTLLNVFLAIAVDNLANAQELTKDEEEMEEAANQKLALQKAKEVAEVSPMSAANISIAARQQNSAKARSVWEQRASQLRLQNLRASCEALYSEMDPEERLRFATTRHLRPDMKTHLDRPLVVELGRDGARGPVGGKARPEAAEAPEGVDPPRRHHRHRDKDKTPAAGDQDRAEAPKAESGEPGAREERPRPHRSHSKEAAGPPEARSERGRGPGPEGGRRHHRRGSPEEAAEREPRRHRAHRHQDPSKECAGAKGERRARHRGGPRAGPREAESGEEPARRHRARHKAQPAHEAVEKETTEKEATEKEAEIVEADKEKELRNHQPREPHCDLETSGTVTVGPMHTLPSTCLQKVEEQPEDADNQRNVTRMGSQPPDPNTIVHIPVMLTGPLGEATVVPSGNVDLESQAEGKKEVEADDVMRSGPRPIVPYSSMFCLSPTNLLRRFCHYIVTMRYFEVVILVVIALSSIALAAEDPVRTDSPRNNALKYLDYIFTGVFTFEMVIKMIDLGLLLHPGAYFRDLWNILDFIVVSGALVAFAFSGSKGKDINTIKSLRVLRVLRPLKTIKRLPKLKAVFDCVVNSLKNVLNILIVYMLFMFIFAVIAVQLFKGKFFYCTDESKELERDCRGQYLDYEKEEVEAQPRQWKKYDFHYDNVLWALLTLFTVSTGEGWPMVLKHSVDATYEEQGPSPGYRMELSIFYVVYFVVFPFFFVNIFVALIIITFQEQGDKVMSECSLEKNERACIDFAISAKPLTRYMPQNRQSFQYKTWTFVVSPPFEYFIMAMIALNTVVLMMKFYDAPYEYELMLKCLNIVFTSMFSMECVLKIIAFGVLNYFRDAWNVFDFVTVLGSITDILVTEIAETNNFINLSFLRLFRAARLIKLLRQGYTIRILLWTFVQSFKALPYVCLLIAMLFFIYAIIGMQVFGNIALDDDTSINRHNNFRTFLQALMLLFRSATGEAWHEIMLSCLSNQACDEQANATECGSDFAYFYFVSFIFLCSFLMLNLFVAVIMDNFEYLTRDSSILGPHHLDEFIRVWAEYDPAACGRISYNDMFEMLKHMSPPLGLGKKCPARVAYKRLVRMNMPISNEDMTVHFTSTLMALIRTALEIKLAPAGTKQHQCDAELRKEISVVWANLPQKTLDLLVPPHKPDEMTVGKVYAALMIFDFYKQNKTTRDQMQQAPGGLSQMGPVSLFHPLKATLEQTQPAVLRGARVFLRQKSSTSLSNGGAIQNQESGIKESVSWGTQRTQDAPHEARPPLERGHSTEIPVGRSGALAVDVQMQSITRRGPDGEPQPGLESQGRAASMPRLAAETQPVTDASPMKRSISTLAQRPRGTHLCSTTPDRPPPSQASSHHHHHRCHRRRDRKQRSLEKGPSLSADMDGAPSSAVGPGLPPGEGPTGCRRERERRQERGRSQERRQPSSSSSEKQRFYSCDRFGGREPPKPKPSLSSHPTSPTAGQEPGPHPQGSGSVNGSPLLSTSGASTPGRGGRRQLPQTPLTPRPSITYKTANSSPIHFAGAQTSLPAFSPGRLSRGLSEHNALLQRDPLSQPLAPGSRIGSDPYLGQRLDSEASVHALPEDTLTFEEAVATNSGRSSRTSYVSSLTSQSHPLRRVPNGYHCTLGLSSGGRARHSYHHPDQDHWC
T1 sequence (P54289 25-956 partner limits assumed): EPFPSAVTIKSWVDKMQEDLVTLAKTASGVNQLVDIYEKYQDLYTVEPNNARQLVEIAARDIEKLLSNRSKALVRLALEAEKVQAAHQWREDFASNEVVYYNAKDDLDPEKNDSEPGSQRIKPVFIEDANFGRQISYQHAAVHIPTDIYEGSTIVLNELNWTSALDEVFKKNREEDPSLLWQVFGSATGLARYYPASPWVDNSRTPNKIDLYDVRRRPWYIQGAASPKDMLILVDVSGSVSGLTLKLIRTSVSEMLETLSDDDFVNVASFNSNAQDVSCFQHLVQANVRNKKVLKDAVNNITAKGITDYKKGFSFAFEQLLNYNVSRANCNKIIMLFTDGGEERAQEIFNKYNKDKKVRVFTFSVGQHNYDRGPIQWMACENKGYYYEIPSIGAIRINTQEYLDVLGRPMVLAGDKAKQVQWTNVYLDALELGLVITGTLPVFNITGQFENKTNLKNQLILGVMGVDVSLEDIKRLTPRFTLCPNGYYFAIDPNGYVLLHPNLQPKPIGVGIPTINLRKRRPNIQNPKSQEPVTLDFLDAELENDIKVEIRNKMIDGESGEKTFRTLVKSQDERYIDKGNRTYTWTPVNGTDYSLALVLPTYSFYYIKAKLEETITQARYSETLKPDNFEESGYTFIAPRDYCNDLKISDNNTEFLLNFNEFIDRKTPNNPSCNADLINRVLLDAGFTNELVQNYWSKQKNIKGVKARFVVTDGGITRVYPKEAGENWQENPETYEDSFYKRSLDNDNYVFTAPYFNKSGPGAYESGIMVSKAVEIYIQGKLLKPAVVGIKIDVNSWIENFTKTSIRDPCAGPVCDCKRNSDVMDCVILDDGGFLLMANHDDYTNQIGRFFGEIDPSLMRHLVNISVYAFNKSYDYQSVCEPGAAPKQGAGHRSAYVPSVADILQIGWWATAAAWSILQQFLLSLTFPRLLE
T1 sequence (P54289 957-1103 partner limits assumed): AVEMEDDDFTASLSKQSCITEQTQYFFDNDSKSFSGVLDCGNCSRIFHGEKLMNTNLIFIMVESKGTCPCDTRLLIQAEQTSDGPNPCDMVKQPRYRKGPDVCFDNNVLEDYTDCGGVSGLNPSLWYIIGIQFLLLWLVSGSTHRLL
T1 sequence (Q02641 whole entry partner): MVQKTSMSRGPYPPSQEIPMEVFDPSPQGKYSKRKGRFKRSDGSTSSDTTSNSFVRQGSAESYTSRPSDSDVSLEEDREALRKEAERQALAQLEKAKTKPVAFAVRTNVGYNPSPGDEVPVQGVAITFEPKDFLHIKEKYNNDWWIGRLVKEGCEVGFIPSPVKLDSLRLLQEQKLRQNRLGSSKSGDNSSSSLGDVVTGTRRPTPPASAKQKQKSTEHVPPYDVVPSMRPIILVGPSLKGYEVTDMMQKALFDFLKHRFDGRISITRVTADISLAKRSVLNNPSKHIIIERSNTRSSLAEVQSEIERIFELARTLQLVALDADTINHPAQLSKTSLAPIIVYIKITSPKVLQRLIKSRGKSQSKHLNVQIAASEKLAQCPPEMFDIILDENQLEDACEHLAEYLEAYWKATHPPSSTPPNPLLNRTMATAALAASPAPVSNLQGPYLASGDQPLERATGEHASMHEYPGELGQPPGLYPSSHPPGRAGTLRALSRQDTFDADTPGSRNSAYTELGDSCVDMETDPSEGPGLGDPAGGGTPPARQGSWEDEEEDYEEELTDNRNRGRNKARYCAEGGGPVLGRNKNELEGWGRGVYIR
Method in brief: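 Differentiated IMR-32 cells loaded with Indo-1 AM were preincubated with compound and 5 μM nitrendipine (L-type block) for 10 min at 30° C in HEPES/Tris pH 7.4 HBSS with 0.5% BSA. Cells were depolarized with KCl/CaCl2, and the 400/490 nm emission ratio rise over basal was measured. IC50 came from a four-parameter logistic fit.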

[2] = test system: sound-induced tonic convulsions in DBA/2 mice; assay: Audiogenic seizure model in DBA/2 mice; assay type: in vivo; conditions: Mus musculus, protected/tested, read-out: Number of Mice Protected From Tonic Convulsions (converted); for responders at 30 mg/kg: 30 mg/Kg IV; for responders at 3 mg/kg: 3 mg/Kg IV; for responders at 10 mg/kg: 10 mg/Kg IV
Description: Audiogenic Seizure Model in DBA/2 Mice
A compound of the present invention was dissolved in water using 10% (weight/volume) Emulphor (GAF Corp., Wayne, N.J.) surfactant. Substances were administered by intravenous injection into the retro-orbital venous sinus of male mice (3-4 weeks old, Jackson Laboratories, Bar Harbour, Me.). All testing was preformed 15 minutes or 45 minutes after drug injection. Immediately before anticonvulsant testing, mice were placed upon a wire mesh, 4 inches square suspended from a steel rod. The square was slowly inverted through 180 degrees and mice observed for 30 seconds. Any mouse falling from the wire mesh was scored as ataxic.
Mice were placed into an enclosed acrylic plastic chamber (21 cm height, approximately 30 cm diameter) with a high-frequency speaker (4 cm diameter) in the center of the top lid. An audio signal generator (Protek model B-810) was used to produce a continuous sinusoidal tone that Was swept linearly in frequency between 8 kHz and 16 kHz once each 10 msec. The average sound pressure level (SPL) during stimulation was approximately 100 dB at the floor of the chamber. Mice were placed within the chamber and allowed to acclimatize for 1 minute. DBA/2 mice in the vehicle-treated group responded to the sound stimulus (applied until tonic extension occurred, or for a maximum of 60 sec) with a characteristic seizure sequence consisting of wild running followed by clonic seizures, and later by tonic extension, and finally by respiratory arrest and death in 80% or more of the mice. In vehicle-treated mice, the entire sequence of seizures to respiratory arrest lasts approximately 15-20 seconds.
The incidence of all the seizure phases in the drug-treated and vehicle-treated mice was recorded, and the occurrence of tonic seizures were used for calculating anticonvulsant ED50 values by probit analysis. Mice were used only once for testing at each time and dose point.

[3] = test system: electroshock-induced tonic extensor seizures in CF-1 mice; assay: Maximal electroshock testing; assay type: in vivo; conditions: protected/tested
Description: Maximal Electroshock Testing
In this test, four representative compounds were tested for their anticonvulsant effects using the procedure described below.
Male CF-1 mice, 20 to 28 g, from Charles River Laboratories, Portage, Mich. were used in all experiments. Groups of 10 mice each were given various intravenous doses of test compound in aqueous solution with 10% Emulphan® Surfactant in a volume of 10 mL/kg of body weight. Electroshock was delivered by corneal electrodes with 60 Hz alternating current (50 mA root-mean-squared for 0.2 seconds) using a constant-current stimulator (Wahlquist Instruments, Salt Lake City, Utah). Untreated or saline-treated mice reliably had tonic extensor seizures with rearward extension of hindlimbs more than 3 seconds. These methods are similar to those published by Krall R. L.; Penry J. K.; White B. G.; and Kupferberg H. K. Antiepileptic Drug Development II. Anticonvulsant Drug Screening, Epilepsia, 1978; 19:409-428.

[4] = 5 μM nitrendipine present, read-out: IMR32 IC50
[5] = 10 mg/Kg iv, 15 min posttreatment
[6] = 30 mg/Kg iv, 15 min posttreatment
[7] = estimated from two data points, read-out: IMR32 IC50 (estimated IC50 values based on two data points)

| SMILES | IC50 [1, 4] [nM] | responders at 30 mg/kg ([2]; 0.25 h, 15 min posttreatment) [%] | responders at 30 mg/kg ([2]; 0.75 h, 45 min posttreatment) [%] | also measured |
| --- | --- | --- | --- | --- |
| CC(C)C[C@H](N)C(=O)NCCCC(c1ccc(F)cc1)c1ccc(F)cc1 [Example 7, (S)-2-Amino-4-methyl-pentanoic acid [4,4-bis-(4-fluoro-phenyl)-butyl]-amide monohydrochloride] | 2400 | 80 | 80 | – |
| CC(C)C[C@H](NCC1CCCCC1)C(=O)NCCCC(c1ccc(F)cc1)c1ccc(F)cc1 [Example 8, (S)-2-(Cyclohexylmethyl-amino)-4-methyl-pentanoic acid [4,4-bis-(4-fluoro-phenyl)-butyl]-amide monohydrochloride] | 460 | 100 | 100 | Number of Mice Protected from Tonic Convulsions [3, 5]: 0/4; Number of Mice Protected from Tonic Convulsions ([3]; 10 mg/Kg iv, 45 min posttreatment): 0/5; Number of Mice Protected from Tonic Convulsions [3, 6]: 4/4; Number of Mice Protected from Tonic Convulsions ([3]; 30 mg/Kg iv, 45 min posttreatment): 2/2; responders at 3 mg/kg ([2]; 0.25 h, 15 min posttreatment): 0%; responders at 10 mg/kg ([2]; 0.25 h, 15 min posttreatment): 80%; responders at 3 mg/kg ([2]; 0.75 h, 45 min posttreatment): 0%; responders at 10 mg/kg ([2]; 0.75 h, 45 min posttreatment): 40% |
| CC(C)=CCN[C@@H](CC(C)C)C(=O)NCCCC(c1ccc(F)cc1)c1ccc(F)cc1 [Example 9, (S)-4-Methyl-2-(3-methyl-but-2-enylamino)-pentanoic acid [4,4-bis-(4-fluoro-phenyl)-butyl]-amide monohydrochloride] | 280 | 100 | 100 | Number of Mice Protected from Tonic Convulsions [3, 5]: 10/10; Number of Mice Protected from Tonic Convulsions [3, 6]: 10/10; responders at 3 mg/kg ([2]; 0.25 h, 15 min posttreatment): 60%; responders at 10 mg/kg ([2]; 0.25 h, 15 min posttreatment): 100%; responders at 3 mg/kg ([2]; 0.75 h, 45 min posttreatment): 0%; responders at 10 mg/kg ([2]; 0.75 h, 45 min posttreatment): 60% |
| CN[C@@H](CC(C)C)C(=O)NCCCC(c1ccc(F)cc1)c1ccc(F)cc1 [Example 12, (S)-4-Methyl-2-methylamino-pentanoic acid [4,4-bis-(4-fluoro-phenyl)-butyl]-amide monohydrochloride] | 1430 | 100 | 80 | – |
| CC(C)C[C@@H](C(=O)NCCCC(c1ccc(F)cc1)c1ccc(F)cc1)N(C)Cc1ccc(C(C)(C)C)cc1.Cl [Example 14, (S)-2-[(4-tert-Butyl-benzyl)-methyl-amino]-4-methyl-pentanoic acid [4,4-bis-(4-fluoro-phenyl)-butyl]-amide monohydrochloride] | 840 | – | – | melting point: 87 to 95 °C |
| CC(C)CCN(C)[C@@H](CC(C)C)C(=O)NCCCC(c1ccc(F)cc1)c1ccc(F)cc1 [Example 28, (S)-4-Methyl-2-[methyl-(3-methyl-butyl)-amino]-pentanoic acid [4,4-bis-(4-fluoro-phenyl)-butyl]-amide monohydrochloride] | – | 80 | 100 | inhibition at 1 µM ([1]; IMR-32, IMR-32 cells, at 1 μM, read-out: IMR32 % blockage at 1 μM): 92%; inhibition at 10 µM ([1]; IMR-32, IMR-32 cells, at 10 μM, read-out: IMR32 % blockage at 10 μM): 97% |
| CC(C)C[C@@H](CN1CCN(C(c2ccc(F)cc2)c2ccc(F)cc2)CC1)NC(=O)N1CCCCCC1 [Example 36, (S)-Azepane-1-carboxylic acid (1-{4-[bis-(4-fluoro-phenyl)-methyl]-piperazin-1-ylmethyl}-3-methyl-butyl)-amide] | – | – | – | IC50 [1, 7]: 500 nM |
| CC(C)C[C@@H](C(=O)N1CCN(C(c2ccc(F)cc2)c2ccc(F)cc2)CC1)N(C)C [Example 39, (S)-1-{4-[Bis-(4-fluoro-phenyl)-methyl]-piperazin-1-yl}-2-dimethylamino-4-methyl-pentan-1-one dihydrochloride] | – | – | – | IC50 [1, 7]: 3500 nM |

Further lines, with some results ahead:

| IC50 [1, 4] [nM] | SMILES | responders at 30 mg/kg ([2]; 0.25 h, 15 min posttreatment) [%] | responders at 30 mg/kg ([2]; 0.75 h, 45 min posttreatment) [%] | also measured |
| --- | --- | --- | --- | --- |
| 480 | CC(C)C[C@H](NC(=O)N1CCCCCC1)C(=O)N1CCN(C(c2ccc(F)cc2)c2ccc(F)cc2)CC1 [Example 31, (S)-Azepane-1-carboxylic acid (1-{4-[bis-(4-fluoro-phenyl)-methyl]-piperazine-1-carbonyl}-3-methyl-butyl)-amide] | 0 | 0 | – |
| 850 | CC(C)[C@H](NC(=O)N1CCCCCC1)C(=O)N1CCN(C(c2ccc(F)cc2)c2ccc(F)cc2)CC1 [Example 33, (S)-Azepane-1-carboxylic acid (1-{4-[bis-(4-fluoro-phenyl)-methyl]-piperazine-1-carbonyl}-2-methyl-propyl)-amide] | 0 | 0 | – |
